Test results: patent publication US20100074934A1, “MEDICAL IMPLANTS WITH A COMBINATION OF COMPOUNDS” (priority 2006, published 2010)

System: chick chorioallantoic membrane (CAM)
Experiment: chick chorioallantoic membrane (CAM) assay, inhibition of angiogenesis
Assay type: in vivo
Parameters: key: 0: normal vascularity; 1: lacking some microvascular movement; small avascular zone approximately 2 mm in diameter; 3: avascularity extending beyond the disk (6 mm in diameter)
Details: 2 day exposure
Protocol: Paclitaxel, dipyridamole, and a combination of paclitaxel and dipyridimole were tested in a chick chorioallantoic membrane (CAM) assay (A. Cevik Tufan and N. Lalae Satirglu-Tufanm Current Cancer Drug Targets, 2005, 5: 249-266) to measure inhibition of angiogenesis by the compounds.
Fertilized, domestic chick embryos were incubated for 4 days prior to shell-less culturing. In this procedure, the egg contents were emptied by cracking the shell, and allowing the contents of the egg to gently slide out. The egg contents were emptied into sterilized petri dishes and then covered with petri dish covers. These were then placed into an incubator at 37 degrees and 90% relative humidity for 4 days.
Paclitaxel (Hauser Lot 1492-16199A) was fixed at concentrations of 0.3 μg and 1 μg per 10 ul aliquot of 0.5% aqueous methylcellulose (disc). Dipyridamole (Aldrich 285676, Lot 064K157) was added to each fixed dose of paclitaxel at specific molar ratios of 1:3, 1:10, 1:1, 3:1, 10:1. Neat solvent (DMSO), paclitaxel at 0.3 μg and 1 μg per disc and the dipyridamole at 5.92 μg per disc were used as the individual controls. Ten microliter aliquots of this solution were dried on parafilm for 3 hours forming disks 2 mm in diameter. The dried disks containing the combination ratios and controls were then carefully placed at the growing edge of each CAM at day 7 of incubation. After a 2 day exposure ([…]) the vasculature was examined with the aid of a stereomicroscope. Liposyn II, a white opaque solution, was injected into the CAM to increase the visibility of the vascular details.
This imaging setup was used at a magnification of 160× which permitted the direct visualization of blood cells within the capillaries; thereby blood flow in areas of interest may be easily assessed and recorded. For this study, the inhibition of angiogenesis was defined as an area of the CAM (measuring 2-6 mm in diameter) lacking a capillary network and vascular blood flow. Throughout the experiments, avascular zones were assessed on a 4 point avascular gradient (Table 1). This scale represents the degree of overall inhibition with maximal inhibition represented as a 3 on the avascular gradient scale.

Row | SMILES | Score (avascular gradient scale) (dipyridamole 0.02 μg/10 μL disc alone) | Score (avascular gradient scale) (dipyridamole 0.06 μg/10 μL disc alone) | Score (avascular gradient scale) (dipyridamole 5.92 μg/10 μL disc alone) | Score (avascular gradient scale) (paclitaxel 1 μg/10 μL disc alone)
1 | OCCN(CCO)c1nc(N2CCCCC2)c2nc(N(CCO)CCO)nc(N3CCCCC3)c2n1 [Dipyridamole (control), 2,6-bis(diethanolamino)-4,8-dipiperidinopyrimido(5,4-d) pyrimidine] | 0 | 0 | 0 | 
2 | CC(=O)O[C@H]1C(=O)[C@@]2(C)[C@H]([C@H](OC(=O)c3ccccc3)[C@]3(O)C[C@H](OC(=O)[C@H](O)[C@@H](NC(=O)c4ccccc4)c4ccccc4)C(C)=C1C3(C)C)[C@]1(OC(C)=O)CO[C@@H]1C[C@@H]2O [Paclitaxel (control), paclitaxel] |  |  |  | 2
